Test results as given in PMC10053059, “Intraocular siRNA Delivery Mediated by Penetratin Derivative to Silence Orthotopic Retinoblastoma Gene” (Pharmaceutics, 2023).
Where no end group is shown, it is not given here.

Assays:
[1] = tested on: WERI-Rb-1 cells; experiment: Cellular uptake pathway, dual-label flow cytometry with uptake inhibitors; type: cell-based, Human; settings: WERI-Rb-1, inhibitors of Table S1, n = 3 (Figure S4)
Description: (§1) For quantitative analysis of cellular uptake of different formulations, ARPE-19 cells and WERI-Rb-1 cells in the logarithmic growth phase were inoculated in 12-well plates with 50,000 cells in each well (n = 3), as mentioned above. After being incubated with various formulations at a final concentration of 1 µg/mL siRNA, the cells were trypsinized with 0.25% trypsin-EDTA, collected in Eppendorf tubes, and centrifuged at 1000 rpm for 5 min. The precipitated cells were subsequently suspended, washed twice in 200 μL phosphate buffer saline (PBS), and analyzed using a flow cytometer (Beckman, Brea, CA, USA). The percentage of FAM-positive cells in total viable cells was defined as the uptake efficiency. The effects of various inhibitors on cellular uptake were also assessed.
(§2) Table S1. Cellular uptake inhibitors and their function mechanisms
(§3) Inhibitor Final Mechanism of action
(§4) Filipin 20 μg/mL Bind to cholesterol on the cell membrane and inhibit endocytosis
(§5) Mß-CD 300 μg/mL Deplete cholesterol and suppress endocytosis
(§6) Genistein 20 μg/mL Inhibit lipid raft/caveolae mediated endocytosis
(§7) Colchicine 20 μg/mL Inhibit pinocytosis by binding to tubulin to prevent microtubule
(§8) Dynasore 20 μg/mL Inhibit […] in clathrin -mediated endocytosis
(§9) Figure S1. Polyacrylamide gel electrophoresis of primary polyplexes siRNA/PA. The ratio is N/P
(§10) of 3rd generation PAMAM to siRNA. […]

[2] = tested on: ARPE-19 cells; experiment: as above; type: cell-based, Human; settings: ARPE-19, inhibitors of Table S1, n = 3 (Figure S4)
Description: as §1, §2, §3, §4, §5, §6, §7, §8, §9, §10

[3] = tested on: ARPE-19 cells; experiment: Intracellular co-localization, laser scanning confocal microscopy; type: cell-based, Human; settings: ARPE-19, 1 µg/mL siRNA, serum-free medium, 4 h
Description: ARPE-19 cells in the logarithmic growth phase were seeded in confocal dishes with a density of 5000 cells/well and incubated for 24 h with 5% CO2 at 37 °C. After administration with various polyplexes at a final concentration of 1 µg/mL siRNA, the cells were further cultured in serum-free medium for 4 h. Then, the cells were washed with 0.2% (m/v) heparin sodium solution three times, fixed with 4% (m/v) paraformaldehyde solution for 5 min, stained with 1 µg/mL 4’,6-diamidino-2-phenylindole (DAPI) solution for 10 min, and moisturized with 50% (v/v) glycerol.

[4] = tested on: eyes, retina; settings: in vivo; cited from earlier work
From the text: We previously screened out penetratin from several of the most commonly reported cell-penetrating peptides based on the ex vivo permeability in excised cornea and in vivo ocular distribution. In a subsequent study, we optimized wild-type penetratin via amino acid mutation to further improve its permeability, and obtained a series of derivative peptides, which could be used as potential ocular absorption enhancers with low toxicity. […] Therefore, we chose 89WP to ...

In the case of “RQIKIWFWWRRMKWKK [89WP-FAM, 5-carboxyfluorescein-labeled 89WP]”, the “effect of uptake inhibitors on cellular uptake of single fluorescence-labeled material” value [1] is reported as “did not affect cellular uptake”, the “effect of uptake inhibitors on cellular uptake of single fluorescence-labeled material” value [2] is reported as “did not affect cellular uptake” and the “internalization by cells (confocal observation)” value [3] is reported as “could be well internalized by the cells and distributed around the nuclei”.
In the case of RQIKIWFWWRRMKWKK [89WP], the “distribution in the eyes after topical instillation” value [4] is given as “showed more distribution in the eyes, especially in the retina”.
